Source: patent publication US20250235486A1, “Method of Producing Insulin-Producing Cells” (Monash University, priority 2022, published 2025)

Legend:
[1] = test system: H3K27me3 or H3K9/14ac content at the promoters of INS-IGF2, NGN3 and PDX1 in human pancreatic ductal epithelial cells; assay: Quantitative PCR chromatin immunoprecipitation (q-PCR ChIP) after 2- and 7-day stimulation; type: cell-based; details: 2-day stimulation (FIG. 12b)
Procedure: Approximately 5×10^6 cells were fixed in 1% formaldehyde for 10 minutes, with a further 10-minute incubation in 0.125M glycine to quench the cross-linking reaction. The fixed cell pellet was lysed following resuspension and homogenization in sodium dodecyl (lauryl) sulphate (SOS) lysis buffer (1% SOS, 10 mM EDTA, 50 mM Tris-HCl pH 8.1) with a protease inhibitor cocktail (Roche Diagnostics GmBH, Mannheim, Germany) included. Samples were incubated on ice for 5 minutes following which sonication was performed to shear chromatin between 200-600 bp. Sonicated chromatin was resuspended in ChIP Dilution Buffer (0.01% SOS, 1.1% Triton X-100, 1.2 mM EDTA, 16.7 mM Tris-HCl pH 8.0 and 167 mM NaCl). 20 μl of DynabeadsR Protein A (Invitrogen, Carlsbad, CA, USA) was added to each sample and pre-cleared. Overnight incubation at 4° C. with H3K27me3 or H3K9/14ac antibody was used for immunoprecipitation of chromatin, as previously described. Immunoprecipitates were collected by magnetic isolation and washed sequentially with low salt and high salt buffers. Immunoprecipitated DNA was then eluted from solution with 0.1 M NaHCO3 containing 1% SIDS. Protein-DNA cross-links were reversed by incubation of samples in Proteinase K (Sigma, St. Louis, MO, USA) for 2 hours at 62° C. DNA was purified using a Qiagen MinElute column (Qiagen Inc., Valencia, CA, USA). H3K27me3 or H3K9/14ac content at the promoters of the INS-IGF2, NGN3 and PDX1 genes were assessed by qPCR using primers designed from the integrative ENCODE resource.

[2] = test system: Human immortalised ductal cell line; assay: qRT-PCR gene expression in human immortalised ductal cell line; type: cell-based; details: ursolic acid 1, 2.5 or 5 μM; GSK126 5, 10 or 20 μM
Procedure: Human immortalised ductal cell line (Catalog #: T0018001, Addexbio) was cultured and assayed in Keratinocyte SFM (serum-free medium) (Catalog number 17005042, ThermoFisher Scientific, USA). Pharmacological inhibition of EZH2 and gene expression analysis were performed as described in Example 1.

CC[C@H](C)n1cc(C)c2c(C(=O)NCc3c(C)cc(C)[nH]c3=O)cc(-c3ccc(N4CCNCC4)nc3)cc21 [GSK126, N-[(1,2-Dihydro-4,6-dimethyl-2-oxo-3-pyridinyl)methyl]-3-methyl-1-[(1S)-1-methylpropyl]-6-[6-(1-piperazinyl)-3-pyridinyl]-1H-indole-4-carboxamide]
significantly reduced: H3K27me3 content of chromatin associated with NGN3 promoter [1] | H3K27me3 content of chromatin associated with PDX1 promoter [1] | H3K27me3 content of chromatin associated with the INS promoter domain [1]
stimulated expression: Insulin mRNA expression [2] | Ngn3 mRNA expression [2] | Pdx1 mRNA expression [2]
